From patent US20240262815A1, “HETEROARYL DERIVATIVE, METHOD FOR PREPARING SAME, AND PHARMACEUTICAL COMPOSITION COMPRISING SAME AS ACTIVE INGREDIENT” (VORONOI INC., priority 2021, published 2024)

Key:
BT-474 cancer cells = assay: Inhibitory activity against proliferation of BT-474 cancer cells (CellTiter-Glo); format: cell-based; conditions: Homo sapiens, BT-474 ErbB2-overexpressing cancer cells, 120 hours after treatment
Protocol: To evaluate the inhibitory activity of a compound according to the present invention against the proliferation of ErbB2-overexpressing cancer cells, the following experiment were performed.
10% FBS-added McCOY'S 5A was used for SK-BR-3 cancer cells. 20% FBS-added RPMI-1640 was used for BT-474 cancer cells. Transduced Ba/F3 cells were cultured in a RPMI-1640 medium to which 1 μg/ml puromycin (Invitrogen) was added.
48 hours before compound treatment, each type of the SK-BR-3 and BT-474 cells were seeded at 5,000 cells/well in a white clear bottom 96 well plate (Corning). The compound was diluted in dimethyl sulfoxide (SK-BR-3: 3-fold dilution, a total of 12 concentrations, BT-474: […], a total of 12 concentrations) and injected at 1 μl to have the final concentration of 0.2 nM to 5 μM. As for measurement of live cells, 120 hours after treatment with the compound, a CellTiter-Glo luminescent cell-viability reagent (Promega) was used to store the cells at room temperature for 10 minutes, followed by measurement of luminescence using a reader (SynergyNeo, Biotek). Each test was repeated three times.
The result values were calculated as a cell growth rate (%) compared to the control group. A graph was plotted using the GraphPad Prism version 8.3.0 program, and GI50 values were calculated.

SK-BR-3 cancer cells = assay: Inhibitory activity against proliferation of SK-BR-3 cancer cells (CellTiter-Glo); format: cell-based; conditions: Homo sapiens, SK-BR-3, 120 h, ErbB2-overexpressing SK-BR-3 cells, 120 hours after treatment
Summary of the method: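 GI50 derived from % growth relative to control, measured by CellTiter-Glo luminescence after 120 h compound exposure (12 concentrations, 0.2 nM-5 μM final, n=3). BT-474 grown in RPMI-1640/20% FBS, SK-BR-3 in McCOY'S 5A/10% FBS; seeding 48 h pre-treatment.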

SMILES	GI50 (BT-474 cancer cells) [µM]	GI50 (SK-BR-3 cancer cells) [µM]
C=CC(=O)Nc1cc(Nc2cc(N3OCC[C@@H]3c3cc(F)cc(-c4cccc(F)c4)c3)ncn2)c(OC)cc1N1CCC(N2CCN(C3CC3)CC2)CC1 [Example 248, (R)-N-(2-(4-(4-cyclopropylpiper-azin-1-yl)piperidin-1-yl)-5-((6-(3-(3′,5-difluoro-[1,1′-biphenyl]-3-yl)-isoxazolidin-2-yl)-pyrimidin-4-yl)-amino)-4-methoxy-phenyl)acrylamide]	< 0.05	
C=CC(=O)Nc1cc(Nc2cc(N3OCC[C@@H]3c3cccc(-c4cccc(F)c4F)c3)ncn2)c(OC)cc1N1CCN(C)[C@@H](C)C1 [Example 326, N-(5-((6-((R)-3-(2′,3′-difluoro-[1,1′-biphenyl]-3-yl)isoxazolidin-2-yl)pyrimidin-4-yl)amino)-2-((S)-3,4-dimethylpiper-azin-1-yl)-4-meth-oxyphenyl)acryl-amide]	< 0.05	
C=CC(=O)Nc1cc(Nc2cc(N3OCC[C@@H]3c3cccc(-c4ccc(F)cc4F)c3)ncn2)c(OC)cc1N1CCN(C)[C@@H](C)C1 [Example 327, N-(5-((6-((R)-3-(2′,4′-difluoro-[1,1′-biphenyl]-3-yl)-isoxazolidin-2-yl)-pyrimidin-4-yl)-amino)-2-((S)-3,4-dimethylpiperazin-1-yl)-4-methoxy-phenyl)acrylamide]	< 0.05	
C=CC(=O)Nc1cc(Nc2cc(N3OCC[C@@H]3c3cccc(-c4cccc(F)c4)c3)ncn2)c(OC)cc1N1C[C@@H](C)N(C(=O)OC(C)(C)C)[C@@H](C)C1 [Example 328, tert-butyl (2S,6R)-4-(2-acrylamido-4-((6-((R)-3-(3′-fluoro-[1,1′-biphen-yl]-3-yl)isoxazol-idin-2-yl)pyrim-idin-4-yl)amino)-5-methoxyphenyl)-2,6-dimethylpiper-azine-1-carboxylate]	0.05 to 0.5	
COc1cc(F)c(NC(=O)/C=C/CN(C)C)cc1Nc1cc(N2OCC[C@@H]2c2cccc(-c3cccc(F)c3)c2)ncn1 [Example 335, (R,E)-4-(dimethyl-amino)-N-(2-fluoro-5-((6-(3-(3′-fluoro-[1,1′-biphen-yl]-3-yl)isoxazol-idin-2-yl)pyrim-idin-4-yl)amino)-4-methoxyphen-yl)but-2-enamide]	< 0.05	
C=CC(=O)Nc1cc(Nc2cc(N3OCCC3c3cccc(C#Cc4ccccc4)c3)ncn2)c(OC)cc1N1CCC(N2CCN(C3CC3)CC2)CC1 (stereo not drawn) [Example compound 138, N-(2-(4-(4-cyclopropylpiperazin-1-yl)piperidin-1-yl)-4-methoxy-5-((6-(3-(3-(phenylethynyl)phenyl)isoxazolidin-2-yl)pyrimidin-4-yl)amino)phenyl)acrylamide]		0.05 to 0.5
C=CC(=O)Nc1cc(Nc2cc(N3OCCC3c3cccc(C#CC(C)(C)C)c3)ncn2)c(OC)cc1N1CCN(C)CC1 (stereo not drawn) [Example compound 139, N-(5-((6-(3-(3-(3,3-dimethylbut-1-yn-1-yl)phenyl)isoxazolidin-2-yl)pyrimidin-4-yl)amino)-4-methoxy-2-(4-methylpiperazin-1-yl)phenyl)acrylamide]		0.05 to 0.5
C=CC(=O)Nc1cc(Nc2cc(N3OCCC3c3cccc(C#CC(C)(C)C)c3)ncn2)c(OC)cc1N1CCC(N2CCN(C3CC3)CC2)CC1 (stereo not drawn) [Example compound 140, N-(2-(4-(4-cyclopropylpiperazin-1-yl)piperidin-1-yl)-5-((6-(3-(3-(3,3-dimethylbut-1-yn-1-yl)phenyl)isoxazolidin-2-yl)pyrimidin-4-yl)amino)-4-methoxyphenyl)acrylamide]		0.05 to 0.5
C=CC(=O)Nc1cc(Nc2cc(N3OCC[C@@H]3c3ccc(F)c(Oc4cccc(F)c4)c3)ncn2)c(OC)cc1N1CCC(N2CCN(C3CC3)CC2)CC1 [Example compound 152, (R)-N-(2-(4-(4-cyclopropylpiperazin-1-yl)piperidin-1-yl)-5-((6-(3-(4-fluoro-3-(3-fluorophenoxy)phenyl)isoxazolidin-2-yl)pyrimidin-4-yl)amino)-4-methoxyphenyl)acrylamide]		< 0.05

Results, then the molecule that gave them:

GI50 (BT-474 cancer cells) [µM]	GI50 (SK-BR-3 cancer cells) [µM]	SMILES
< 0.05		C=CC(=O)Nc1cc(Nc2cc(N3OCC[C@@H]3c3cccc(-c4cccc(C(N)=O)c4)c3)ncn2)c(OC)cc1N1CCN(C)CC1 [Example 325, (R)-3′-(2-(6-((5-acrylamido-2-methoxy-4-(4-methylpiperazin-1-yl)phenyl)-amino)pyrimidin-4-yl)isoxazolidin-3-yl)-[1,1′-biphen-yl]-3-carboxamide]
< 0.05		C=CC(=O)Nc1cc(Nc2cc(N3OCC[C@@H]3c3cccc(-c4cccc(F)c4)c3)ncn2)c(OC)cc1N1C[C@@H](C)N[C@@H](C)C1 [Example 329, N-(2-((3S,5R)-3,5-dimethyl-piperazin-1-yl)-5-((6-((R)-3-(3′-fluoro-[1,1′-bi-phenyl]-3-yl)-isoxazolidin-2-yl)pyrimidin-4-yl)amino)-4-meth-oxyphenyl)acryl-amide]
< 0.05		C=CC(=O)Nc1cc(Nc2cc(N3OCC[C@@H]3c3cccc(-c4cccc(C#N)c4)c3)ncn2)c(OC)cc1N1CCN(C)CC1 [Example 330, (R)-N-(5-((6-(3-(3′-cyano-[1,1′-biphenyl]-3-yl)-isoxazolidin-2-yl)-pyrimidin-4-yl)-amino)-4-methoxy-2-(4-methylpiper-azin-1-yl)phenyl)-acrylamide]
< 0.05		C=CC(=O)Nc1cc(Nc2cc(N3OCC[C@@H]3c3cccc(-c4ccc(OC)nc4)c3)ncn2)c(OC)cc1N1CCN(C)[C@@H](C)C1 [Example 331, N-(2-((S)-3,4-dimethylpiperazin-1-yl)-4-methoxy-5-((6-((R)-3-(3-(6-methoxypyridin-3-yl)phenyl)isoxazol-idin-2-yl)pyrim-idin-4-yl)amino)-phenyl)acrylamide]
0.05 to 0.5		C=CC(=O)Nc1cc(Nc2cc(N3OCC[C@@H]3c3cccc(-c4ccc(C(F)(F)F)cc4)c3)ncn2)c(OC)cc1N1CCN(C)CC1 [Example 332, (R)-N-(4-methoxy-2-(4-methylpiper-azin-1-yl)-5-((6-(3-(4′-(trifluoro-methyl)-[1,1′-bi-phenyl]-3-yl)-isoxazolidin-2-yl)-pyrimidin-4-yl)-amino)phenyl)-acrylamide]
< 0.05		C=CC(=O)Nc1cc(Nc2cc(N3OCC[C@@H]3c3cccc(-c4ccc(C#N)cc4)c3)ncn2)c(OC)cc1N1CCN(C)CC1 [Example 333, (R)-N-(5-((6-(3-(4′-cyano-[1,1′-biphenyl]-3-yl)-isoxazolidin-2-yl)-pyrimidin-4-yl)-amino)-4-methoxy-2-(4-methylpiper-azin-1-yl)phenyl)-acrylamide]
< 0.05		C=CC(=O)Nc1cc(Nc2cc(N3OCC[C@@H]3c3cccc(C(=O)Nc4ccccc4)c3)ncn2)c(OC)cc1N1CCN(C)CC1 [Example 334, (R)-3-(2-(6-((5-acrylamido-2-meth-oxy-4-(4-methyl-piperazin-1-yl)-phenyl)amino)pyr-imidin-4-yl)isox-azolidin-3-yl)-N-phenylbenzamide]
< 0.05		C=CC(=O)Nc1cc(Nc2cc(N3OCC[C@@H]3c3cccc(-c4cccc(F)c4)c3)ncn2)c(OC)cc1N1CCN(CCO)CC1 [Example 336, (R)-N-(5-((6-(3-(3′-fluoro-[1,1′-biphenyl]-3-yl)-isoxazolidin-2-yl)-pyrimidin-4-yl)-amino)-2-(4-(2-hydroxyethyl)-piperazin-1-yl)-4-methoxyphenyl)-acrylamide]
< 0.05		C=CC(=O)Nc1cc(Nc2cc(N3OCC[C@@H]3c3cccc(-c4cccc(C)c4C)c3)ncn2)c(OC)cc1N1CCN(C)CC1 [Example 337, (R)-N-(5-((6-(3-(2′,3′-dimethyl-[1,1′-biphenyl]-3-yl)isoxazolidin-2-yl)pyrimidin-4-yl)-amino)-4-methoxy-2-(4-methylpiper-azin-1-yl)phenyl)-acrylamide]
< 0.05		C=CC(=O)Nc1cc(Nc2cc(N3OCC[C@@H]3c3cccc(-c4cccc(C(=O)OC)c4)c3)ncn2)c(OC)cc1N1CCN(C)CC1 [Example 338, methyl (R)-3′-(2-(6-((5-acrylamido-2-methoxy-4-(4-methylpiperazin-1-yl)phenyl)-amino)pyrimidin-4-yl)isoxazolidin-3-yl)-[1,1′-biphen-yl]-3-carboxylate]
< 0.05		C=CC(=O)Nc1cc(Nc2cc(N3OCC[C@@H]3c3cccc(-c4cccc(F)c4)c3)ncn2)c(OC)cc1N1CCC2(CC1)COC2 [Example 339, (R)-N-(5-((6-(3-(3′-fluoro-[1,1′-biphenyl]-3-yl)-isoxazolidin-2-yl)-pyrimidin-4-yl)-amino)-4-methoxy-2-(2-oxa-7-azas-piro[3.5]nonan-7-yl)phenyl)acryl-amide]
	0.05 to 0.5	C=CC(=O)Nc1cc(Nc2cc(N3OCC[C@@H]3c3ccc(F)c(Oc4cccc(F)c4)c3)ncn2)c(OC)cc1N1CCN(C)CC1 [Example compound 153, (R)-N-(5-((6-(3-(4-fluoro-3-(3-fluorophenoxy)phenyl)isoxazolidin-2-yl)pyrimidin-4-yl)amino)-4-methoxy-2-(4-methylpiperazin-1-yl)phenyl)acrylamide]
